Reference: patent publication US9399625B2, “Acridone compounds” (Oregon Health & Science University, priority 2006, dated 2016)
Where two headings read alike, the source gives them in different places.

How the values were obtained:
P. yoelii (K) = experiment: Curative efficacy vs patent infection, three once-daily doses (adapted 6-day Thompson test); conditions: ig, three once-daily doses
[1] = target: T1, recombinant human serotonin transporter (hSERT) (Homo sapiens, UniProt P31645); experiment: [125I]RTI-55 binding, HEK-hSERT
T1 construct: expressed in transfected cells
T1 sequence (P31645 whole entry): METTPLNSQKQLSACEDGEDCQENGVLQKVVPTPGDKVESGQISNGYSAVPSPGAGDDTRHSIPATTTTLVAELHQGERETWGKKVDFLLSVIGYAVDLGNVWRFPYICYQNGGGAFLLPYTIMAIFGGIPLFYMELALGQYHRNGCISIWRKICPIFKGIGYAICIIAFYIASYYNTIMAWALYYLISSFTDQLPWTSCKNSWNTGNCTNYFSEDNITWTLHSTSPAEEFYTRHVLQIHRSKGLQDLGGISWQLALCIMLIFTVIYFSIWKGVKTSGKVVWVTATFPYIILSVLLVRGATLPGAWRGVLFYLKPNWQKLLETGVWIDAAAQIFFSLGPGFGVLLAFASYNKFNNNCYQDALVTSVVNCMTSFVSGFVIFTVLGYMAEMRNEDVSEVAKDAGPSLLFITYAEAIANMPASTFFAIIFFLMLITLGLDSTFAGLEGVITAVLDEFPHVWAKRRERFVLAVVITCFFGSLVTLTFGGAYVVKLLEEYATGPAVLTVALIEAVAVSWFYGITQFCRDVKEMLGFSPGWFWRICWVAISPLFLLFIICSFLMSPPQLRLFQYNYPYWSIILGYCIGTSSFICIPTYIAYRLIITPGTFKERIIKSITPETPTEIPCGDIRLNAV

[2] = target: T2, recombinant human dopamine transporter (hDAT) (Homo sapiens, UniProt Q01959); experiment: [125I]RTI-55 binding, HEK-hDAT
T2 construct: expressed in transfected cells
T2 sequence (Q01959 whole entry): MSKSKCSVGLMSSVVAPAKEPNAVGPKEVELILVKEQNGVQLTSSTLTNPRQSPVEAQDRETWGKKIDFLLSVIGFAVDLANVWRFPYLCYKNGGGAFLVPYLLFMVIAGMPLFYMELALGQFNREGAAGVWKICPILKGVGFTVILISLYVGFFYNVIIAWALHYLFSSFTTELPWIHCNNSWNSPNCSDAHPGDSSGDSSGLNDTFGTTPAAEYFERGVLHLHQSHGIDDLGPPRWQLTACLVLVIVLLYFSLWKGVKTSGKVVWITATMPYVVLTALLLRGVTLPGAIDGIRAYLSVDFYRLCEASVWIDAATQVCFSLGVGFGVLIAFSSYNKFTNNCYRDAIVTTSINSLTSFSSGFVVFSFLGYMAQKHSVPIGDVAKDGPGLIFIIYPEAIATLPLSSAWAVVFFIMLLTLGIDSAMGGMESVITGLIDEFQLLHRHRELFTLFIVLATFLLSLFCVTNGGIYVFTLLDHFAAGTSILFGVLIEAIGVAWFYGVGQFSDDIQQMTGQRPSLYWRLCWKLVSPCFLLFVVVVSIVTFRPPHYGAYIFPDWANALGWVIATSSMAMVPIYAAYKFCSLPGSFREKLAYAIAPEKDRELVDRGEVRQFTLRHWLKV

[3] = Heme-binding affinity (spectrophotometric titration); conditions: Table 4
Description: With continued reference to FIG. 1, panel B illustrates the spectrophotometric titration curve of the heme:3,6-bis-ε-(N,N-diethylamino)-amyloxy xanthone (C5) complex. The apparent binding constant was derived from the best fit (solid line) of a 1:1 (heme dimer:C5) association model. […] Panels A and B show the fluorescence localization of C5 and LysoTracker Red, respectively.

[4] = test system: murine splenic lymphocytes (MSLCs); experiment: Cytotoxicity by Alamar Blue assay; conditions: for IC50: cytotoxicity
[5] = test system: MDR Dd2 strain of P. falciparum; experiment: In vitro antimalarial activity, SYBR Green MSF assay, Dd2; type: cell-based; conditions: Plasmodium falciparum, DD2
Description: This example describes the screening of disclosed antimalarial acridones against the CQ-sensitive D6 strain and the MDR Dd2 strain of P. falciparum for in vitro antimalarial activity.
As shown in Table 3 and Table 4, selected soluble acridone derivatives were screened for antimalarial activity against the CQ-sensitive D6 and the MDR Dd2 strains of P. falciparum.

P. yoelii = experiment: Hemozoin in PRBCs of treated infected mice; type: in vivo
Experimental: (§1) P. falciparum Dd2 MDR parasited red cells were synchronized to the ring stage by sorbitol lysis and incubated the cells in the presence or absence of 300 nM T3.5. […] P. yoelii infected mice treated with T3.5 harbor PRBCs that lack hemozoin. Taken together these observations are consistent with the notion that T3.5 blocks hemozoin formation in infected cells.

[6] = In vitro heme aggregation assay; conditions: 25 mM phosphate buffer, pH 4.8, 30 minutes at room temperature
Experimental: This example describes the in vitro inhibition of heme aggregation by xanthone 2,3,4,5,6-pentahydroxyxanthone. Conditions: 25 mM Phosphate buffer, pH 5.2, 1 hour incubation at 37° C. Further details of this assay are described by Ignatushchenko et al. in Xanthones as antimalarial agents; studies of a possible mode of action.
This example describes visual evidence that acridones disclosed herein form soluble complexes with heme under mildly acidic conditions. […] Employing the same assay conditions, heme was mixed with T2 or T3.5 under mildly acidic conditions (25 mM phosphate buffer, pH 4.8) and monitored. […] Without being limited to theory, it is believed that for some compounds inhibition of heme aggregation in vitro can be correlated with inhibition of hemozoin formation in vivo.

[7] = target: T3, recombinant human norepinephrine transporter (hNET) (Homo sapiens, UniProt P23975); experiment: [125I]RTI-55 binding, HEK-hNET
T3 construct: expressed in transfected cells
T3 sequence (P23975 whole entry): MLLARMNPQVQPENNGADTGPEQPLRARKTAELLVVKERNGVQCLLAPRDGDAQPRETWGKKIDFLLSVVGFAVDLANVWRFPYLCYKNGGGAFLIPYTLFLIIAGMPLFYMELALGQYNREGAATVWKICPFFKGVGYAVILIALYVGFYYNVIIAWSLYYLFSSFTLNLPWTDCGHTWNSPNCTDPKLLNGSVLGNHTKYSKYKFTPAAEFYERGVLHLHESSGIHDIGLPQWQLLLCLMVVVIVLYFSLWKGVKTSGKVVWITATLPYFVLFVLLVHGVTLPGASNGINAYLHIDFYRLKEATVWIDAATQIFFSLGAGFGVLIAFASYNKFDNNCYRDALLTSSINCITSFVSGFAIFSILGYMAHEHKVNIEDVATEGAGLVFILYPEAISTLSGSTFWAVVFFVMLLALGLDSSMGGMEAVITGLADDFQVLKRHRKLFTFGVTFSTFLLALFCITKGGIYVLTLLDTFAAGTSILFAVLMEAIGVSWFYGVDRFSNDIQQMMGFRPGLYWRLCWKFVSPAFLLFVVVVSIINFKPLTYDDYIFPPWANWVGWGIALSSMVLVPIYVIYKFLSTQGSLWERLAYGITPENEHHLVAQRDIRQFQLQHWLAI

[8] = test system: CQ-sensitive P. falciparum D6; experiment: Fixed-ratio combination (isobologram) with quinine, D6; type: cell-based; conditions: isobolar analysis
Experimental: In one embodiment, synergism is assessed herein using fixed-ratio combinations that provide information over a wide range of drug concentrations. In this method, the two drugs are mixed in an appropriate ratio, serial dilutions of the combined solution are used for testing, and results compared to each drug alone. Specifically, to determine synergy, the acridone is tested in combination with a second drug using a modification of the fixed-ratio method described by Fivelman et al. (See, Fivelman et al., Antimicrob. Agents Chemother. 48, 4097-4102 (2004) and Winter et al., Antimicrob. Agents Chemother. 41, 1449-1454 (1997), both references incorporated herein, in their entirety, by reference). […] If these stock solutions were termed Drug A and Drug B, then six final stock solutions were prepared from this initial stock: Drug A alone, Drug B alone, and volume:volume mixtures of Drug A and B in the following ratios: 4:1, 3:2, 2:3, and 1:4. Two-fold dilutions of each of the six final stock solutions were done robotically across a 96-well plate in quadruplicate. […] The data pointed from all six curves were then analyzed using Calcusyn software (commercially available from BioSoft, Cambridge, UK) for determination of synergy. Output from this analysis included FIC values used to plot isobolograms as well as a rigorously determined synergy index, termed the combination index (CI) (Calcusyn). […]

[9] = test system: QN-sensitive P. yoelii (K); experiment: In vivo synergism T3.5 and quinine, 6-day Thompson test in mice; conditions: alone or fixed-ratio combination (dose of each)
Experimental: In vivo synergism was assessed using the 6-day Thompson test in mice infected with QN-sensitive P. yoelii (K), comparing the efficacy of T3.5 alone, QN alone and T3.5:QN combinations (Table 7). Dosages were established using a rigorous fixed-ratio combination dosing protocol and results were assessed using Calcusyn software to determine synergy. As in the case of the in vitro combination, there was evident in vivo synergism.

P. falciparum Dd2 MDR = experiment: Morphology of synchronized Dd2 parasitized red cells; type: cell-based; conditions: 300 nM; 36 hours of incubation; vs controls
Experimental: as §1

## CCN(CC)CCOc1ccc2c(=O)c3ccc(Cl)cc3n(CCN(CC)CC)c2c1 [T3.5, 3-(2-diethylaminoethoxy)-6-chloro-10-(2-diethylaminoethyl)-9-acridone]
P. yoelii (K)
  ED50 and ED90, gavage (ig) dosing, in words: comparable
[1]
  Ki: 2290 nM
[2]
  Ki: > 10000 nM
[3]
  Heme-binding Ka: 7.1 10^4 M^−1
[4]; 25 μM
  cytotoxicity at the highest tested concentration: no evidence of cytotoxicity
[4]; ratio of cytotoxicity IC50 (vs. MSLCs) to antimalarial IC50 against D6
  IVTI: >500
[4]; read-out: IC50, MSLCs, Table 2
  IC50: > 25000 nM
[4]; read-out: IC50 MSLCs, Table 4
  IC50: > 25000 nM
[5]; Table 2, average of 4 independent experiments, read-out: IC50, Dd2
  IC50: 58 nM
[5]; Table 4, read-out: IC50 P. falciparum Dd2
  IC50: 77 nM
P. yoelii
  hemozoin in PRBCs: lack hemozoin
[6]
  formation of heme aggregates: prevent the formation of heme aggregates
[7]
  Ki: > 10000 nM
[8]
  interaction with quinine: synergism
[9]
  ED50 dose: 56 mg/kg/day
  ED75 dose: 70 mg/kg/day
  ED90 dose: 88 mg/kg/day
P. falciparum Dd2 MDR
  visible hemozoin: markedly diminished
